Measured values taken from patent US20090099169A1, “Benzofuran Compounds As EP1 Receptor Antagonists” (GLAXO GROUP LIMITED, priority 2006, published 2009).
Where a name gives a salt, the structure may show the parent alone.

How the values were obtained:
[1] = molecular target: T1, human EP1 receptor (Homo sapiens, UniProt P34995); test: Binding assay for the human prostanoid EP1 receptor (radioligand competition); set-up: expressed in transfected cells; host or cells: CHO-K1 (membranes); details: CHO-K1 membranes; [3H]-PGE2 for Examples 1-17, 19, 33, 34, 60 and 61, 3-{2-[5-Bromo-2-(2,4-difluorobenzyloxy)-phenyl]-5-methyl-pyrrol-1-yl}-6-[3H3-methoxy]methoxy-benzoic acid for the remaining; averages of a number of experiments; read-out: pIC50 value (binding assay for the human prostanoid EP1 receptor) (converted)
T1 sequence (P34995 1-402): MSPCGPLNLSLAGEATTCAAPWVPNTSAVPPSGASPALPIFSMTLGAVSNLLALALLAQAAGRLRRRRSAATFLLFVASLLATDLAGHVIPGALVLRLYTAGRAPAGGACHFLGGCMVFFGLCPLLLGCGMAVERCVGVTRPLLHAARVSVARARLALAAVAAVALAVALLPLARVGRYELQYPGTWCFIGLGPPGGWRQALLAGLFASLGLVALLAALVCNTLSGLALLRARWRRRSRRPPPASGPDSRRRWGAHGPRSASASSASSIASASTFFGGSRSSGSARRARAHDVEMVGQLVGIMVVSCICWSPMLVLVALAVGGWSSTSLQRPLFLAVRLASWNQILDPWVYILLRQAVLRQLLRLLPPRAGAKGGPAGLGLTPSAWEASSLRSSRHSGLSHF
Description: Compound potencies are determined using a radioligand binding assay. In this assay compound potencies are determined from their ability to compete with tritiated prostaglandin E2 ([^3H]-PGE2) for binding to the human EP1 receptor.
This assay utilises Chinese hamster ovary-K1 (CHO-K1) cells into which a stable vector containing the EP1 cDNA has previously been transfected. Cells are cultured in suitable flasks containing culture medium such as DMEM:F-12 supplemented with 10% v/v foetal calf serum, 2 mM L-glutamine, 0.25 mg/ml geneticin, 10 μg/ml puromycin and 10 μM indomethacin.
Cells are detached from the culture flasks by incubation in calcium and magnesium free phosphate buffered saline containing 1 mM disodium ethylenediaminetetraacetic acid (Na2EDTA) and […] indomethacin for 5 min. The cells are isolated by centrifugation at 250×g for 5mins and suspended in an ice cold buffer such as 50 mM Tris, 1 mM Na2EDTA, 140 mM NaCl, 10 μM indomethacin (pH 7.4). The cells are homogenised using a Polytron tissue disrupter (2×10 s burst at full setting), centrifuged at 48,000×g for 20mins and the pellet containing the membrane fraction is washed (optional) three times by suspension and centrifugation at 48,000×g for 20mins. The final membrane pellet is suspended in an assay buffer such as 10 mM 2-[N-morpholino]ethanesulphonic acid, 1 mM Na2EDTA, 10 mM MgCl2 (pH 6). Aliquots are frozen at −80° C. until required.
(§1) For the binding assay the cell membranes, competing compounds and [^3H]-PGE2 (3 nM final assay concentration) are incubated in a final volume of 100 μl for 30 min at 30° C. All reagents are prepared in assay buffer. Reactions are terminated by rapid vacuum filtration over GF/B filters using a Brandell cell harvester. The filters are washed with ice cold assay buffer, dried and the radioactivity retained on the filters is measured by liquid scintillation counting in Packard TopCount scintillation counter.
The data are analysed using non linear curve fitting techniques to determine the concentration of compound producing 50% inhibition of specific binding (IC50).
Alternatively a similar assay may be carried out using 3-{2-[5-Bromo-2-(2,4-difluoro-benzyloxy)-phenyl]-5-methyl-pyrrol-1-yl}-6-[^3H3-methoxy]methoxy-benzoic acid instead of [^3H]-PGE2.
For the binding assay using 3-{2-[5-Bromo-2-(2,4-difluoro-benzyloxy)-phenyl]-5-methyl-pyrrol-1-yl}-6-[^3H3-methoxy]methoxy-benzoic acid instead of [^3H]-PGE2 the assay is carried out using a similar procedure to that described above using [^3H]-PGE2 with the following changes:
as §1, with “The” for “For the binding assay the”, “3-{2-[5-Bromo-2-(2,4-difluoro-benzyloxy)-phenyl]-5-methyl-pyrrol-1-yl}-6-[^3H3-methoxy]methoxy-benzoic acid (0.2” for “[^3H]-PGE2 (3”, “400” for “100”, “45” for “30”, “37°” for “30°”, “water at ambient temperature,” for “ice cold assay buffer,”
The preparation of 3-{2-[5-Bromo-2-(2,4-difluoro-benzyloxy)-phenyl]-5-methyl-pyrrol-1-yl}-6-methoxy-benzoic acid is described in WO 03/101959 and in Hall et al, Biorg. Med. Chem. Lett., 2007, 17, 916-920. The tritiated version may be prepared via conventional routes, e.g. from 3-{2-[5-bromo-2-(2,4-difluoro-benzyloxy)-phenyl]-5-methyl-pyrrol-1-yl}-6-hydroxy-benzoic acid or 3-{2-[5-bromo-2-(2,4-difluoro-benzyloxy)-phenyl]-5-methyl-pyrrol-1-yl}-6-hydroxy-benzoic acid methyl ester.

[2] = molecular target: T2, human EP3 receptor (Homo sapiens, UniProt P43115); test: human EP3 calcium mobilisation assay; type: cell-based; details: CHO-K1 cells, antagonism of PGE2; averages of a number of experiments; read-out: functional pKi value (human EP3 calcium mobilisation assay) (converted)
T2 construct: expressed in transfected cells; host or cells: CHO-K1
T2 sequence (P43115 1-390): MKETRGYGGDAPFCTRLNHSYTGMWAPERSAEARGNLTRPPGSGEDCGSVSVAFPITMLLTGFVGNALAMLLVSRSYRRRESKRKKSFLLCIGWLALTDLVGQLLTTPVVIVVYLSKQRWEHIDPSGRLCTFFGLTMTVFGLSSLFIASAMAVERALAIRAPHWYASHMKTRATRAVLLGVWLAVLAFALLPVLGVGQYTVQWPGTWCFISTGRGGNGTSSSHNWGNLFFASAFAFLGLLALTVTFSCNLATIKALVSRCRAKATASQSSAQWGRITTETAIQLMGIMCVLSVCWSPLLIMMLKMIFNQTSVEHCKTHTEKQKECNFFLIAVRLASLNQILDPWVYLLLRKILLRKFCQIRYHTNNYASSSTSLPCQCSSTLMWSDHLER
Description: (§2) Briefly, the antagonist properties of compounds are assessed by their ability to inhibit the mobilisation of intracellular calcium ([Ca^2+]i) in response to activation of EP1 or EP3 receptors by the natural agonist hormone prostaglandin E2 (PGE2). Increasing concentrations of antagonist reduce the amount of calcium that a given concentration of PGE2 can mobilise. The net effect is to displace the PGE2 concentration-effect curve to higher concentrations of PGE2. The amount of calcium produced is assessed using a calcium-sensitive fluorescent dye such as Fluo-4, AM and a suitable instrument such as a Fluorimetric Imaging Plate Reader (FLIPR). Increasing amounts of [Ca^2+]i produced by receptor activation increase the amount of fluorescence produced by the dye and give rise to an increasing signal. The signal may be detected using the FLIPR instrument and the data generated may be analysed with suitable curve-fitting software.
(§3) The human EP1 or EP3 calcium mobilisation assay (hereafter referred to as ‘the calcium assay’) utilises Chinese hamster ovary-K1 (CHO-K1) cells into which a stable (PCIN; BioTechniques 20 (1996): 102-110) vector containing either EP1 or EP3 cDNA has previously been transfected. Cells are cultured in suitable flasks containing culture medium such as DMEM:F-12 supplemented with 10% v/v foetal calf serum, 2 mM L-glutamine, 0.25 mg/ml geneticin, 100 μM flurbiprofen and 10 μg/ml puromycin.
(§4) For assay, cells are harvested using a proprietary reagent that dislodges cells such as Versene. Cells are re-suspended in a suitable quantity of fresh culture media for introduction into a 384-well plate. Following incubation for 24 hours at 37° C. the culture media is replaced with a medium containing Fluo-4 and the detergent pluronic acid, and a further incubation takes place. Concentrations of compounds are then added to the plate in order to construct concentration-effect curves. This may be performed on the FLIPR in order to assess the agonist properties of the compounds. Concentrations of PGE2 are then added to the plate in order to assess the antagonist properties of the compounds.
(§5) The data so generated may be analysed by means of a computerised curve-fitting routine. The concentration of compound that elicits a half-maximal inhibition of the calcium mobilisation induced by PGE2 (pIC50) may then be estimated.

[3] = molecular target: T1, human EP1 receptor; test: human EP1 calcium mobilisation assay; type: cell-based; set-up: expressed in transfected cells; details: CHO-K1 cells, antagonism of PGE2; averages of a number of experiments; read-out: functional pKi value (human EP1 calcium mobilisation assay) (converted)
Description: as §2, §3, §4, §5

SMILES | IC50 [1] | Ki [2] | Ki [3]
Cc1cc(C(=O)O)nn1Cc1cc(S(C)(=O)=O)cc2cc(C(C)C)oc12 [Example 22, 5-methyl-1-{[2-(1-methylethyl)-5-(methylsulfonyl)-1-benzofuran-7-yl]methyl}-1H-pyrazole-3-carboxylic Acid] | ≤ 100 nM | 501 to 10000 nM | ≤ 316 nM
CCNCc1ccc(NC(=O)c2ccc(Cc3cc(Cl)cc4cc(C(C)C)oc34)o2)cc1 [Example 56, 5-{[5-Chloro-2-(1-methylethyl)-1-benzofuran-7-yl]methyl}-N-{4-[(ethylamino)methyl]phenyl}-2-furancarboxamide Hydrochloride] | – | 501 to 10000 nM | ≤ 316 nM
CC(C)c1cc2cc(Cl)cc(Cc3ccc(C(=O)NN(C)C)o3)c2o1 [Example 39, 5-{[5-Chloro-2-(1-methylethyl)-1-benzofuran-7-yl]methyl}-N′,N′-dimethyl-2-furancarbohydrazide] | – | 501 to 10000 nM | ≤ 316 nM
Cc1cc(NC(=O)OCC2CCNCC2)nn1Cc1cc(Cl)cc2cc(C(C)C)oc12 [Example 4, 4-Piperidinylmethyl (1-{[5-chloro-2-(1-methylethyl)-1-benzofuran-7-yl]methyl}-5-methyl-1H-pyrazol-3-yl)carbamate Hydrochloride] | – | 501 to 10000 nM | ≤ 316 nM
CC(C)NC(=O)c1ccc(Cc2cc(Cl)cc3cc(C(C)C)oc23)o1 [Example 38, 5-{[5-Chloro-2-(1-methylethyl)-1-benzofuran-7-yl]methyl}-N-(1-methylethyl)-2-furancarboxamide] | – | 501 to 10000 nM | –
Cc1cc(NC(=O)C(C)C)nn1Cc1cc(C#N)cc2cc(C(C)C)oc12 [Example 68, N-(1-{[5-Cyano-2-(1-methylethyl)-1-benzofuran-7-yl]methyl}-5-methyl-1H-pyrazol-3-yl)-2-methylpropanamide] | ≤ 100 nM | – | ≤ 316 nM
CC(C)c1cc2cc(Cl)cc(Cc3ccc(-c4nc5cc(CO)ccc5[nH]4)o3)c2o1 [Example 9, [2-(5-{[5-Chloro-2-(1-methylethyl)-1-benzofuran-7-yl]methyl}-2-furanyl)-1H-benzimidazol-5-yl]methanol Hydrochloride] | ≤ 100 nM | – | ≤ 316 nM
Cc1cc(C(=O)O)nn1Cc1cc(Cl)cc2cc(C(C)(C)C)oc12 [Example 27, 1-{[5-Chloro-2-(1,1-dimethylethyl)-1-benzofuran-7-yl]methyl}-5-methyl-1H-pyrazole-3-carboxylic Acid] | ≤ 100 nM | – | ≤ 316 nM
CC(C)c1cc2cc(Cl)cc(Cc3cccc(C(=O)NCC4CCNCC4)n3)c2o1 [Example 47, 6-{[5-Chloro-2-(1-methylethyl)-1-benzofuran-7-yl]methyl}-N-(4-piperidinylmethyl)-2-pyridinecarboxamidehydrochloride] | – | 501 to 10000 nM | –
Cc1cc(-c2nc3ccccc3[nH]2)nn1Cc1cc(Cl)cc2cc(C(C)C)oc12 [Example 5, 2-(1-{[5-Chloro-2-(1-methylethyl)-1-benzofuran-7-yl]methyl}-5-methyl-1H-pyrazol-3-yl)-1H-benzimidazole Hydrochloride] | ≤ 100 nM | – | ≤ 316 nM
Cc1cc(C(=O)NN2CCCCC2)nn1Cc1cc(Cl)cc2cc(C(C)C)oc12 [Example 6, 1-{[5-Chloro-2-(1-methylethyl)-1-benzofuran-7-yl]methyl}-5-methyl-N-1-piperidinyl-1H-pyrazole-3-carboxamide] | ≤ 100 nM | – | ≤ 316 nM
Cc1cc(C(=O)N2CCOCC2)nn1Cc1cc(Cl)cc2cc(C3CC3)oc12 [Example 32, 4-({1-[(5-chloro-2-cyclopropyl-1-benzofuran-7-yl)methyl]-5-methyl-1H-pyrazol-3-yl}carbonyl)morpholine] | – | 501 to 10000 nM | ≤ 316 nM
Cc1cc(C(=O)NN2CCOCC2)nn1Cc1cc(Br)cc2cc(C(C)C)oc12 [Example 18, 1-{[5-Bromo-2-(1-methylethyl)-1-benzofuran-7-yl]methyl}-5-methyl-N-4-morpholinyl-1H-pyrazole-3-carboxamide] | ≤ 100 nM | – | ≤ 316 nM
CC(C)c1cc2cc(Cl)cc(Cc3ccc(C(=O)NCC4CCNCC4)o3)c2o1 [Example 48] | ≤ 100 nM | – | 1000 to 1580 nM
